These results are taken from ChEMBL document CHEMBL1130683, “Aryl C-glycosides: physiologically stable glycomimetics of sialyl Lewis X” (Bioorg Med Chem Lett, 1998).

The target of the first assay is T1, L-selectin (Homo sapiens, UniProt P14151).
T1 sequence (P14151 whole entry): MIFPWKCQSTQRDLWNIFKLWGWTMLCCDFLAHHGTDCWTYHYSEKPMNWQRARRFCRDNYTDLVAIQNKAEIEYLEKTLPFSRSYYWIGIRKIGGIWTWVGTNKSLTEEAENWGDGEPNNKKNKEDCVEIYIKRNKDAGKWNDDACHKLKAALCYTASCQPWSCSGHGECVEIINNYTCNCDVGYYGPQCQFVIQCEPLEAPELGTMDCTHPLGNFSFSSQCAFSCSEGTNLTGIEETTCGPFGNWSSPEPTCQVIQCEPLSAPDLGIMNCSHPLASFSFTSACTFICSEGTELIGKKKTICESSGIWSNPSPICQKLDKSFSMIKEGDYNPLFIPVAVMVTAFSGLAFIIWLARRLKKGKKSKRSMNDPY
In words: Inhibitory activity against L-selectin IgG chimeras binding to sLex coating 96 wells using competitive cell-free ELISA assay was determined.
In turn, `COc1ccc(C2(C(=O)O)CCCCC2)cc1C1OCC(O)C(O)C1O` (stereo unspecified) registered an IC50 of 11 µM.
On to `COc1ccc(CCCC(=O)O)cc1C1OC(C)C(O)C(O)C1O` (stereo unspecified), for which the IC50 was determined as 170 µM.
The same measure, in the same setting: the same measure for `COc1ccc(CC(=O)O)cc1C1OC(C)C(O)C(O)C1O` (stereo unspecified): 3 µM.
`COc1ccc(C2(C(=O)O)CCCCC2)cc1C1OC(CO)C(O)C(O)C1O` (stereo unspecified) came in with an IC50 of 1 µM.
`COc1cc(CC(=O)O)c(C2OC(C)C(O)C(O)C2O)c(OC)c1OC` (stereo unspecified) yielded an IC50 of 114 µM.
The same measure, in the same setting: the same measure for `COc1ccc(C2(C(=O)O)CCCCC2)cc1[C@H]1O[C@@H](C)[C@H](O)[C@H](O)[C@@H]1O`: 35 µM; for `COc1ccc(C2(C(=O)O)CCCCC2)cc1[C@H]1O[C@@H](C)[C@@H](O)[C@H](O)[C@@H]1O`: 106 µM.

A further assay has as its target T2, P-selectin (Homo sapiens, UniProt P16109).
T2 sequence (P16109 whole entry): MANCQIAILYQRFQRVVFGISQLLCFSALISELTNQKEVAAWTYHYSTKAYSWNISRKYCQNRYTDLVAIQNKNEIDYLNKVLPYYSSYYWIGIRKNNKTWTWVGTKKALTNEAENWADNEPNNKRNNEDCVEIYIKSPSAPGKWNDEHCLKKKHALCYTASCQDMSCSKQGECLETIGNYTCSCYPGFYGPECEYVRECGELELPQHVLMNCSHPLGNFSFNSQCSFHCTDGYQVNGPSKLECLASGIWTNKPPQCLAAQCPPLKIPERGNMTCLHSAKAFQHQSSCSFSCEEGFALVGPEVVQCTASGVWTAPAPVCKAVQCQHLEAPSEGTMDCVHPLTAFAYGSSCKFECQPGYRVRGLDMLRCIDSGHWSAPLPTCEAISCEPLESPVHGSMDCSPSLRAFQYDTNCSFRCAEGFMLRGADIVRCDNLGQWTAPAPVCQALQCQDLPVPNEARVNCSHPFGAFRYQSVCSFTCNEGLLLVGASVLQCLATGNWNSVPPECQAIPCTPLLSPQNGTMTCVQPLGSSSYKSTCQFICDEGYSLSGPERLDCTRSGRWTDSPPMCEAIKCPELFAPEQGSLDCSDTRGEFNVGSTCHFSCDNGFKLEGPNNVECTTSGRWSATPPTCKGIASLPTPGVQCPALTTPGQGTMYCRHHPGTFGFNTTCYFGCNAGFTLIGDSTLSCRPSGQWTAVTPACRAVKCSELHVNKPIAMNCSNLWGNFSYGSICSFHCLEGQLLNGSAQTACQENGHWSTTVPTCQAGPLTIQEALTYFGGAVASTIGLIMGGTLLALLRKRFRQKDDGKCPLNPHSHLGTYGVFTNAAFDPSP
Nature of the assay: Inhibitory activity against P-selectin IgG chimeras binding to sLex coating 96 wells using competitive cell-free ELISA assay was determined. On the technique in general: In an ELISA, binding on a coated surface is turned into a signal by an enzyme label.
`COc1ccc(C2(C(=O)O)CCCCC2)cc1C1OCC(O)C(O)C1O` (stereo unspecified) had an IC50 of 8 µM.
On the same count and under the same terms, for `COc1ccc(CCCC(=O)O)cc1C1OC(C)C(O)C(O)C1O` (stereo unspecified) the value was 5 µM; for `COc1ccc(CC(=O)O)cc1C1OC(C)C(O)C(O)C1O` (stereo unspecified), 1 µM; for `COc1ccc(C2(C(=O)O)CCCCC2)cc1C1OC(CO)C(O)C(O)C1O` (stereo unspecified), 3 µM.
On the same count and under the same terms, for `COc1cc(CC(=O)O)c(C2OC(C)C(O)C(O)C2O)c(OC)c1OC` (stereo unspecified) the value was 40 µM; for `COc1ccc(C2(C(=O)O)CCCCC2)cc1[C@H]1O[C@@H](C)[C@H](O)[C@H](O)[C@@H]1O`, 22 µM.
Still for that read-out and setting: the same measure for `COc1ccc(C2(C(=O)O)CCCCC2)cc1[C@H]1O[C@@H](C)[C@@H](O)[C@H](O)[C@@H]1O`: 7 µM.

The next assay deals with T3, E-selectin (Homo sapiens, UniProt P16581).
T3 sequence (P16581 whole entry): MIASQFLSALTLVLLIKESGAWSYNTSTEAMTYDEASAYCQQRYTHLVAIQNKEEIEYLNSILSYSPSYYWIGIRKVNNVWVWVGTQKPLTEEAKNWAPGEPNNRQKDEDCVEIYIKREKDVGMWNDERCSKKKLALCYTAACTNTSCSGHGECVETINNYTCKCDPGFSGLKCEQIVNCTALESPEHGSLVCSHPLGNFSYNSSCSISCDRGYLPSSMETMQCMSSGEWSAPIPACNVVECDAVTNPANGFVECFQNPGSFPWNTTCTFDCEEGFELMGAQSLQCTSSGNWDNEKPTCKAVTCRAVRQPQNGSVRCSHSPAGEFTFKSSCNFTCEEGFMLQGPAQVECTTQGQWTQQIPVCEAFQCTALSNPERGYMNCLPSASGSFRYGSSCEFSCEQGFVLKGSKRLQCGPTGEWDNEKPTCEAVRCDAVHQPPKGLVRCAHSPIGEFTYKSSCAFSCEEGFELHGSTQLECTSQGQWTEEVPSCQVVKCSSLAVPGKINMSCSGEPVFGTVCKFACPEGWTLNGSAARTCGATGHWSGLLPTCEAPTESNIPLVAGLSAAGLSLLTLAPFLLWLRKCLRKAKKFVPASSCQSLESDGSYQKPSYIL
Nature of the assay: Inhibitory activity against Selectin E IgG chimeras binding to sLex coating 96 wells using competitive cell-free ELISA assay was determined.
In the case of `COc1ccc(C2(C(=O)O)CCCCC2)cc1C1OCC(O)C(O)C1O` (stereo unspecified), the IC50 is over 1000 µM.
With `COc1ccc(CCCC(=O)O)cc1C1OC(C)C(O)C(O)C1O` (stereo unspecified), the IC50 is over 1000 µM.
On the same count and under the same terms, for `COc1ccc(CC(=O)O)cc1C1OC(C)C(O)C(O)C1O` (stereo unspecified) the value was over 1000 µM; for `COc1ccc(C2(C(=O)O)CCCCC2)cc1C1OC(CO)C(O)C(O)C1O` (stereo unspecified), over 1000 µM.
Still for that read-out and setting: the same measure for `COc1cc(CC(=O)O)c(C2OC(C)C(O)C(O)C2O)c(OC)c1OC` (stereo unspecified): over 1000 µM; for `COc1ccc(C2(C(=O)O)CCCCC2)cc1[C@H]1O[C@@H](C)[C@H](O)[C@H](O)[C@@H]1O`: over 1000 µM.
`COc1ccc(C2(C(=O)O)CCCCC2)cc1[C@H]1O[C@@H](C)[C@@H](O)[C@H](O)[C@@H]1O` yielded an IC50 of over 1000 µM.

One may read the IC50 as the concentration at which inhibition is half-maximal.
